From US10072017B2, “Compounds and methods for the treatment of cystic fibrosis” (Flatley Discovery Lab, LLC, priority 2015, dated 2018) come the findings set out here.

In this test the target is T1, CFTR (Homo sapiens, UniProt P13569, DEL508-508).
T1 construct: Primary CF airway epithelial cells were obtained from the UNC Cystic Fibrosis Tissue Procurement and Cell Culture Core; host or cells: primary CF airway epithelial cells
As to the kind of experiment: Equivalent current assay in Primary CF airway epithelial cells (NAUC). It counts as cell-based. The settings on record: 24 h, normalized to VX809 (3 μM) positive control; for Nauc @ 3 μM: 3 μM test compound; for Nauc @ 10 μM: 10 μM test compound. In outline:
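NAUC is the area under the curve from forskolin (10 μM) plus VX770 (1 μM) addition to CFTR-172 (20 μM) block, after benzamil (5 μM). It is corrected for vehicle and scaled to 3 μM VX809 as 1.0 and DMSO as 0.0. Cells were exposed for 24 h to compounds with VX809; medians of ≥4 replicates were fitted sigmoidally.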

T1 sequence (P13569 with tags, fused parts or gaps DEL508-508): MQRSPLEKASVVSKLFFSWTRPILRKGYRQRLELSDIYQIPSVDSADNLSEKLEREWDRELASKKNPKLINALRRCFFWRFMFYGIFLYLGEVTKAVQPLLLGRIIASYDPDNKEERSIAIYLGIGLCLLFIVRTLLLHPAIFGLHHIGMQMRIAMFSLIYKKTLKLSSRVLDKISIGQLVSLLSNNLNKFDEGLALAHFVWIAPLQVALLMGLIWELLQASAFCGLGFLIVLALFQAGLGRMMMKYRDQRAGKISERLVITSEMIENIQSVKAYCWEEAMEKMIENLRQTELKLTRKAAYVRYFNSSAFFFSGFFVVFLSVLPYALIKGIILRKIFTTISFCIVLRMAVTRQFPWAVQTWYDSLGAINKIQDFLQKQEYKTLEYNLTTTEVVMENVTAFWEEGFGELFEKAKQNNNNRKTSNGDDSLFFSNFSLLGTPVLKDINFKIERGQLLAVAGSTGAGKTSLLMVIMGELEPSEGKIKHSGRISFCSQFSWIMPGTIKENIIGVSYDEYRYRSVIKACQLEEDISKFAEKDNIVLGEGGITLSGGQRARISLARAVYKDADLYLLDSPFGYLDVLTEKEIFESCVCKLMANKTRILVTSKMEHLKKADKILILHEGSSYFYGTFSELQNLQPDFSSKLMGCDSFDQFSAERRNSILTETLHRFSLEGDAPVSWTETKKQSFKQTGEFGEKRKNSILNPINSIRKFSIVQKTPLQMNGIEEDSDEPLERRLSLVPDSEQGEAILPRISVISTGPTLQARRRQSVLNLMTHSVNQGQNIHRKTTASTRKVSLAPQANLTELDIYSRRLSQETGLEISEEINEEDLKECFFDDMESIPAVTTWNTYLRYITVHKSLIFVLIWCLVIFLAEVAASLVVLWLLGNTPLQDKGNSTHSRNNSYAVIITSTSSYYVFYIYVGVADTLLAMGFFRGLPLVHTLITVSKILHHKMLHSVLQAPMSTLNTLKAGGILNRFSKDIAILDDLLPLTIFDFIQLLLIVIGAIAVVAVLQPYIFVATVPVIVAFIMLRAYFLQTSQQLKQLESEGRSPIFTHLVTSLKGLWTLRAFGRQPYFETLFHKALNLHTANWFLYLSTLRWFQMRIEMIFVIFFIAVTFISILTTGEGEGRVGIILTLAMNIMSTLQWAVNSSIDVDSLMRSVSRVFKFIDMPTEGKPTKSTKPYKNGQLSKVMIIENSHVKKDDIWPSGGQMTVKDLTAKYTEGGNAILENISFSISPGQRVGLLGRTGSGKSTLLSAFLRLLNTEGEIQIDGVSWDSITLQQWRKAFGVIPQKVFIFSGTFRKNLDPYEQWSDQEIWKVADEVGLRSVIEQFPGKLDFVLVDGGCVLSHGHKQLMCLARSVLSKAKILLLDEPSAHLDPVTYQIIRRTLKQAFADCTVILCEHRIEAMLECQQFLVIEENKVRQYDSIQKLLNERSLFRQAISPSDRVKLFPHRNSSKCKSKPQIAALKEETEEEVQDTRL

In the case of `CC1(C)CC2C3C(=O)N(c4cc(Cl)c(OC(F)F)c(Cl)c4)C(=O)C3C3(C(=O)Nc4c(Cl)cc(Cl)cc43)N2C1` (centres unmarked) [Example 225], the “Nauc @ 3 μM” value is recorded as “+++ (NAUC “+++” refers to an observed NAUC >170% of positive control)” and the “Nauc @ 10 μM” value was “+++ (NAUC “+++” refers to an observed NAUC >170% of positive control)”.

In the case of `C[C@]1(O)CC2C3C(=O)N(c4cc(Cl)c(OC(F)F)c(Cl)c4)C(=O)C3C3(C(=O)Nc4c(Cl)cc(Cl)cc43)N2C1` (some centres unmarked) [Example 226], the “Nauc @ 3 μM” value is reported as “++ (NAUC “++” refers to an observed NAUC 170-140% of positive control)” and the “Nauc @ 10 μM” value is listed as “++ (NAUC “++” refers to an observed NAUC 170-140% of positive control)”.

As to `O=C1C2C3CCCN3C3(C(=O)Nc4c(Cl)cc(Cl)cc43)C2C(=O)N1c1cccc(F)n1` (centres unmarked) [Example 227], the “Nauc @ 3 μM” value is “+ (NAUC “+” refers to an observed NAUC <140% of positive control)” and the “Nauc @ 10 μM” value is recorded as “++ (NAUC “++” refers to an observed NAUC 170-140% of positive control)”.

As to `O=C1C2C(Cc3c(Cl)cccc3Cl)NC3(C(=O)Nc4c(Cl)cc(Cl)cc43)C2C(=O)N1c1cc(Cl)cc(Cl)c1` (centres unmarked) [Example 228], the “Nauc @ 3 μM” value was “+++ (NAUC “+++” refers to an observed NAUC >170% of positive control)” and the “Nauc @ 10 μM” value is reported as “++ (NAUC “++” refers to an observed NAUC 170-140% of positive control)”.

Take `O=C1C2C3CCCN3C3(C(=O)Nc4c(Cl)cc(Cl)cc43)C2C(=O)N1c1ncc(Cl)s1` (centres unmarked) [Example 229]: the “Nauc @ 3 μM” value is “+ (NAUC “+” refers to an observed NAUC <140% of positive control)” and the “Nauc @ 10 μM” value is reported as “++ (NAUC “++” refers to an observed NAUC 170-140% of positive control)”.

For `C[C@]1(F)CC2C3C(=O)N(c4cc(Cl)cc(Cl)n4)C(=O)C3C3(C(=O)Nc4c(Cl)cc(Cl)cc43)N2C1` (some centres unmarked) [Example 231], the “Nauc @ 3 μM” value was “+ (NAUC “+” refers to an observed NAUC <140% of positive control)” and the “Nauc @ 10 μM” value is given as “+++ (NAUC “+++” refers to an observed NAUC >170% of positive control)”.

`C[C@]1(O)CC2C3C(=O)N(c4cccc(F)n4)C(=O)C3C3(C(=O)Nc4c(Cl)cc(Cl)cc43)N2C1` (some centres unmarked) [Example 233]: the “Nauc @ 3 μM” value is listed as “+++ (NAUC “+++” refers to an observed NAUC >170% of positive control)” and the “Nauc @ 10 μM” value is recorded as “++ (NAUC “++” refers to an observed NAUC 170-140% of positive control)”.

In the case of `C[C@]1(O)CC2C3C(=O)N(c4ccon4)C(=O)C3C3(C(=O)Nc4c(Cl)cc(Cl)cc43)N2C1` (some centres unmarked) [Example 234], the “Nauc @ 3 μM” value is reported as “+ (NAUC “+” refers to an observed NAUC <140% of positive control)” and the “Nauc @ 10 μM” value is recorded as “++ (NAUC “++” refers to an observed NAUC 170-140% of positive control)”.

As for `CC(C)C1NC2(C(=O)Nc3c(Cl)cc(Cl)cc32)C2C(=O)N(c3cc(Cl)cc(Cl)c3)C(=O)C12` (centres unmarked) [Example 235], the “Nauc @ 3 μM” value was “+++ (NAUC “+++” refers to an observed NAUC >170% of positive control)” and the “Nauc @ 10 μM” value was “+++ (NAUC “+++” refers to an observed NAUC >170% of positive control)”.

For the molecule `O=C1C2C(Cc3ccccc3Cl)NC3(C(=O)Nc4c(Cl)cc(Cl)cc43)C2C(=O)N1c1cc(Cl)cc(Cl)c1` (centres unmarked) [Example 236], the “Nauc @ 3 μM” value is listed as “+++ (NAUC “+++” refers to an observed NAUC >170% of positive control)” and the “Nauc @ 10 μM” value is recorded as “++ (NAUC “++” refers to an observed NAUC 170-140% of positive control)”.

Consider `Cc1cc(CC2NC3(C(=O)Nc4c(Cl)cc(Cl)cc43)C3C(=O)N(c4cc(Cl)cc(Cl)c4)C(=O)C23)no1` (centres unmarked) [Example 237], for which the “Nauc @ 3 μM” value was “++ (NAUC “++” refers to an observed NAUC 170-140% of positive control)” and the “Nauc @ 10 μM” value was “+ (NAUC “+” refers to an observed NAUC <140% of positive control)”.

For the molecule `Cc1cccc(CC2NC3(C(=O)Nc4c(Cl)cc(Cl)cc43)C3C(=O)N(c4cc(Cl)cc(Cl)c4)C(=O)C23)n1` (centres unmarked) [Example 238], the “Nauc @ 3 μM” value is on record as “+ (NAUC “+” refers to an observed NAUC <140% of positive control)” and the “Nauc @ 10 μM” value is on record as “++ (NAUC “++” refers to an observed NAUC 170-140% of positive control)”.

Take `O=C1C2C3C[C@H](O)CN3C3(C(=O)Nc4c(Cl)cc(Cl)cc43)C2C(=O)N1c1cc(Cl)c(OC(F)F)c(Cl)c1` (some centres unmarked) [Example 244]: the “Nauc @ 3 μM” value is recorded as “++ (NAUC “++” refers to an observed NAUC 170-140% of positive control)” and the “Nauc @ 10 μM” value was “++ (NAUC “++” refers to an observed NAUC 170-140% of positive control)”.

As for `COc1c(Cl)cc(N2C(=O)C3C4C[C@H](C(F)(F)F)CN4C4(C(=O)Nc5c(Cl)cc(Cl)cc54)C3C2=O)cc1Cl` (some centres unmarked) [Example 245], the “Nauc @ 3 μM” value is recorded as “+++ (NAUC “+++” refers to an observed NAUC >170% of positive control)” and the “Nauc @ 10 μM” value is reported as “+++ (NAUC “+++” refers to an observed NAUC >170% of positive control)”.

In the case of `O=C1C2C(Cc3ccccc3Cl)NC3(C(=O)Nc4c(Cl)cc(Cl)cc43)C2C(=O)N1c1cc(Cl)cc(Cl)c1` (centres unmarked) [Example 246], the “Nauc @ 3 μM” value was “+++ (NAUC “+++” refers to an observed NAUC >170% of positive control)” and the “Nauc @ 10 μM” value was “+++ (NAUC “+++” refers to an observed NAUC >170% of positive control)”.

For the molecule `Cc1nc(CC2NC3(C(=O)Nc4c(Cl)cc(Cl)cc43)C3C(=O)N(c4cc(Cl)cc(Cl)c4)C(=O)C23)cs1` (centres unmarked) [Example 248], the “Nauc @ 3 μM” value was “+ (NAUC “+” refers to an observed NAUC <140% of positive control)” and the “Nauc @ 10 μM” value is on record as “++ (NAUC “++” refers to an observed NAUC 170-140% of positive control)”.

As to `O=C1C2C3CCCN3C3(C(=O)Nc4c(Cl)cc(Cl)cc43)C2C(=O)N1c1cccc(C(F)(F)F)n1` (centres unmarked) [Example 251], the “Nauc @ 3 μM” value is given as “+++ (NAUC “+++” refers to an observed NAUC >170% of positive control)” and the “Nauc @ 10 μM” value is on record as “+++ (NAUC “+++” refers to an observed NAUC >170% of positive control)”.

Take `Cc1cnc(CC2NC3(C(=O)Nc4c(Cl)cc(Cl)cc43)C3C(=O)N(c4cc(Cl)cc(Cl)c4)C(=O)C23)cn1` (centres unmarked) [Example 252]: the “Nauc @ 3 μM” value was “++ (NAUC “++” refers to an observed NAUC 170-140% of positive control)” and the “Nauc @ 10 μM” value was “++ (NAUC “++” refers to an observed NAUC 170-140% of positive control)”.

With `C[C@]1(O)CC2C3C(=O)N(c4cccc(C(F)(F)F)n4)C(=O)C3C3(C(=O)Nc4c(Cl)cc(Cl)cc43)N2C1` (some centres unmarked) [Example 253], the “Nauc @ 3 μM” value is “+ (NAUC “+” refers to an observed NAUC <140% of positive control)” and the “Nauc @ 10 μM” value was “++ (NAUC “++” refers to an observed NAUC 170-140% of positive control)”.
